Reference: patent US12448369B2 (Edgewise Therapeutics, Inc., priority 2023, dated 2025)

What follows are compounds tested on Rabbit Psoas myofibrils (skeletal myosin ATPase) (assay: Myofibril ATPase assay, rabbit psoas (skeletal) myofibrils). Conditions: Y75 value (no ‡ mark); rabbit psoas myofibrils.
Type: biochemical
Procedure: (§1) Example 1. Myofibril ATPase Assay
(§2) Myofibril ATPase assays are known in the art to be useful in evaluating small molecules for the treatment of HCM and other cardiac indications. Myosin ATPase activity is assessed by using a coupled reaction system, in which ADP generated by the myosin ATPase function is coupled to the disappearance of NADH through the pyruvate kinase/lactate dehydrogenase (PK-LDH) system. ATPase activity produces ADP, which is used as a substrate for PK to produce pyruvate and regenerate ATP. The pyruvate is then used as a substrate by LDH to oxidize NADH to NAD+. The rate of the reaction is monitored through the time-dependent disappearance of NADH using absorbance at 340 nm, which, when the couple system is in stoichiometric excess, is directly correlated to the ATPase activity of the myosin. Inhibition of ATPase activity by the assayed compounds is indicated by a reduced rate of NADH loss, relative to vehicle-treated controls, over the experimental time window. Activation of ATPase activity by the assayed compounds is indicated by an increased rate of NADH loss, relative to vehicle-treated controls, over the experimental time window. Rabbit Psoas, Porcine atria, and Porcine ventricle are the primary sources of myofibril material.
(§3) Materials: The following stock solutions and reagents were used in the Myofibril ATPase Assay:
(§4) Stock Solutions of pCa buffer. Combine PIPES, CaCl2, and EGTA solutions with water. Adjust pH to 7.0 and bring final volume to 100 mL.
(§5) Buffer A & Buffer B. Prepare buffers A and B according to the table below.
(§6) Myofibril ATPase Assay Procedure: BSA, ATP, NADH, PEP, and DTT solutions were thawed at room temperature, then transferred to ice. Pellet-frozen myofibrils were transferred with approximately twice the required volume into a sufficiently large tube and capped. Myofibrils were thawed by rolling in a water bath for approximately 15 min at room temperature and cooled on ice. Buffers A and B were prepared by adjusting volumes as necessary for required number of wells and stored on ice. 0.5 μL of the compounds to be assayed were added into wells. 25 μL of Buffer A was dispensed into the wells, followed by 25 μL of Buffer B. The wells were measured for absorbance at 340 nm, using a kinetic protocol in which the wells are read every 1.5-2 min for 75 min. Assay data analysis was performed using a python script that filtered the raw data to retain those points falling between a starting and ending time and between a maximum and minimum absorbance, then used the filtered time-domain 340 nm absorbance data in each well to calculate a slope via linear regression analysis in units of mAU/min. Compound slopes were normalized between 100% and 0% activity, where 100% represented the slope of wells containing only compound vehicle, and fit to a 4-parameter logistic model. In addition to the fit parameters, the EC25% values were calculated, relative to the 100% normalized value. Additionally, the Y125 values were calculated for compounds that increased myosin ATP-ase activity. Fit parameters, calculated effective concentrations, filtered raw data, and calculated slopes were exported, in addition to compound-specific graphs of normalized ATPase activity versus concentration in μM. Each value reported in Table 5, Table 6, and Table 7 is either a Y75 value or a Y125 value. Values without a double cross sign, ‡, are Y75 values, which reflect the concentration required to reduce myosin ATP-ase activity by 25% (e.g., Y-axis activity value is 75% of initial value), relative to myosin ATP-ase activity in the absence of exogenous compound.
Skeletal Myofibril Isolation:
(§7) Myofibrils from various animals and tissue types were acquired from a variety of sources: rabbit psoas muscle was purchased from Pel-Freez Biologicals (Rogers, AR) and porcine cardiac muscle was purchased from Exemplar Genetics. All myofibrils were prepared using a method based upon those described in Herrmann et al. (1993) and summarized here. […]

Going from `Cc1c(C(F)(F)C(=O)N[C@H](C)c2ncc(C#N)cc2F)c(=O)[nH]c2cccc(C#N)c12` (single isomer, unassigned) [compound 2501] to `Cc1c(F)ccc2[nH]c(=O)c(C(F)(F)C(=O)N[C@H](C)c3ncc(C#N)cc3F)c(C)c12` (single isomer, unassigned) [compound 4811], the “Skeletal EC25” value rises from 0.15 µM to 0.59 µM (3.9-fold).

First: C[C@H](NC(=O)Cc1c(C2CC2)c2cc(F)ccc2[nH]c1=O)c1ccc(C#N)nn1 (single isomer, unassigned) [compound 2054]
Second: Cc1c(CC(=O)N[C@@H](C)c2ccc(F)cc2F)c(=O)[nH]c2ccc(F)c(C3CC3)c12 [compound 101]
The “Skeletal EC25” value of the first is 1.5-fold lower: 0.15 µM for the first, 0.23 µM for the second.

First: C[C@H](NC(=O)C1(c2cc3c(F)c(F)ccc3[nH]c2=O)CC1)c1ccc(F)cc1F [compound 4814]
Second: C[C@H](NC(=O)[C@@H](C)c1cc2c(F)c(F)ccc2[nH]c1=O)c1ccc(F)cc1F (single isomer, unassigned) [compound 110]
The “Skeletal EC25” value of the first is 530-fold lower: 0.19 µM for the first, 100.00 µM for the second.

First: C[C@H](NC(=O)[C@@H](C)c1c(C(F)(F)F)c2cc(F)ccc2[nH]c1=O)c1ccc(F)cc1F (single isomer, unassigned) [compound 57]
Second: C[C@H](NC(=O)C(F)(F)c1cc2cc(F)ccc2[nH]c1=O)c1ccc(F)cc1F [compound 119]
The “Skeletal EC25” value of the first is 1.6-fold lower: 0.07 µM for the first, 0.11 µM for the second.

First: Cc1cc([C@@H](C)NC(=O)Cc2c(O)c3c(C)c(F)ccc3[nH]c2=O)ncc1F [compound 1116]
Second: C[C@H](NC(=O)Cc1cc2c(F)c(F)ccc2[nH]c1=O)c1cnc(C#N)cn1 (single isomer, unassigned) [compound 12]
The “Skeletal EC25” value of the first is 3300-fold higher: 100.00 µM for the first, 0.03 µM for the second.

First: Cc1c(CC(=O)N[C@H]2COCc3cc(C#N)cnc32)c(=O)[nH]c2ccc(F)cc12 [compound 1057]
Second: C[C@H](NC(=O)Cc1cc2c(C#N)cccc2[nH]c1=O)c1ncc(C#N)cn1 (single isomer, unassigned) [compound 2038]
The “Skeletal EC25” value of the first is 4.8-fold lower: 21 µM for the first, 100.00 µM for the second.

Going from `Cc1c(C(F)(F)C(=O)N[C@H](C)c2ncc(C#N)cn2)c(=O)[nH]c2ccc(F)c(C(F)(F)F)c12` (single isomer, unassigned) [Compound 2513] to `Cc1nc(C#N)cnc1[C@H](C)NC(=O)C1(c2cc3c(F)c(F)ccc3[nH]c2=O)CC1` (single isomer, unassigned) [compound 4826], the “Skeletal EC25” value rises from 0.34 µM to 1.00 µM (2.9-fold).

What follows are compounds tested on Porcine atria myofibrils (atrial myosin ATPase) (assay: Myofibril ATPase assay, porcine atria myofibrils). Conditions: Y75 value (no ‡ mark); porcine atria myofibrils.
Type: biochemical
Procedure: as §1, §2, §3, §4, §5, §6, §7

Compared with `Cc1c(C(F)(F)C(=O)N[C@H](C)c2ncc(C#N)cc2F)c(=O)[nH]c2cccc(C#N)c12` (single isomer, unassigned) [compound 2501], `Cc1c(F)ccc2[nH]c(=O)c(C(F)(F)C(=O)N[C@H](C)c3ncc(C#N)cc3F)c(C)c12` (single isomer, unassigned) [compound 4811] is 4.3-fold higher in “Atrial EC25” value: 0.17 µM for the first, 0.73 µM for the second.

Going from `C[C@H](NC(=O)Cc1c(C2CC2)c2cc(F)ccc2[nH]c1=O)c1ccc(C#N)nn1` (single isomer, unassigned) [compound 2054] to `Cc1c(CC(=O)N[C@@H](C)c2ccc(F)cc2F)c(=O)[nH]c2ccc(F)c(C3CC3)c12` [compound 101], the “Atrial EC25” value falls from 0.23 µM to 0.04 µM (5.8-fold).

First: C[C@H](NC(=O)C1(c2cc3c(F)c(F)ccc3[nH]c2=O)CC1)c1ccc(F)cc1F [compound 4814]
Second: C[C@H](NC(=O)[C@@H](C)c1cc2c(F)c(F)ccc2[nH]c1=O)c1ccc(F)cc1F (single isomer, unassigned) [compound 110]
The “Atrial EC25” value of the first is 2.3-fold lower: 0.23 µM for the first, 0.52 µM for the second.

Going from `C[C@H](NC(=O)[C@@H](C)c1c(C(F)(F)F)c2cc(F)ccc2[nH]c1=O)c1ccc(F)cc1F` (single isomer, unassigned) [compound 57] to `C[C@H](NC(=O)C(F)(F)c1cc2cc(F)ccc2[nH]c1=O)c1ccc(F)cc1F` [compound 119], the “Atrial EC25” value rises from 0.15 µM to 0.26 µM (1.7-fold).

Compared with `Cc1cc([C@@H](C)NC(=O)Cc2c(O)c3c(C)c(F)ccc3[nH]c2=O)ncc1F` [compound 1116], `C[C@H](NC(=O)Cc1cc2c(F)c(F)ccc2[nH]c1=O)c1cnc(C#N)cn1` (single isomer, unassigned) [compound 12] is 3300-fold lower in “Atrial EC25” value: 100.00 µM for the first, 0.03 µM for the second.

`Cc1c(CC(=O)N[C@H]2COCc3cc(C#N)cnc32)c(=O)[nH]c2ccc(F)cc12` [compound 1057] and `C[C@H](NC(=O)Cc1cc2c(C#N)cccc2[nH]c1=O)c1ncc(C#N)cn1` (single isomer, unassigned) [compound 2038] are the same in “Atrial EC25” value: 100.00 µM for the first, 100.00 µM for the second.

Compared with `Cc1c(C(F)(F)C(=O)N[C@H](C)c2ncc(C#N)cn2)c(=O)[nH]c2ccc(F)c(C(F)(F)F)c12` (single isomer, unassigned) [Compound 2513], `Cc1nc(C#N)cnc1[C@H](C)NC(=O)C1(c2cc3c(F)c(F)ccc3[nH]c2=O)CC1` (single isomer, unassigned) [compound 4826] is 1.6-fold higher in “Atrial EC25” value: 0.43 µM for the first, 0.67 µM for the second.

Each compound was assayed against T1, Porcine ventricle myofibrils (ventricular myosin ATPase) (Sus scrofa, UniProt P79293) (assay: Myofibril ATPase assay, porcine ventricle myofibrils). Conditions: Y75 value (no ‡ mark); porcine ventricle myofibrils.
T1 construct: Myofibrils from porcine cardiac muscle was isolated from the left ventricle of Yucatan minipigs; tissue Exemplar Genetics; host or cells: left ventricle of Yucatan minipigs, myofibrils prepared in house
Type: biochemical, porcine (Yucatan minipigs)
Procedure: as §1, §2, §3, §4, §5, §6
Cardiac Myofibril Isolation:
Myofibrils from porcine cardiac muscle was isolated from the left ventricle of Yucatan minipigs. Myofibrils were prepared using a method based upon those described in Herrmann et al. (1993) and summarized here. […]

T1 sequence (P79293 whole entry): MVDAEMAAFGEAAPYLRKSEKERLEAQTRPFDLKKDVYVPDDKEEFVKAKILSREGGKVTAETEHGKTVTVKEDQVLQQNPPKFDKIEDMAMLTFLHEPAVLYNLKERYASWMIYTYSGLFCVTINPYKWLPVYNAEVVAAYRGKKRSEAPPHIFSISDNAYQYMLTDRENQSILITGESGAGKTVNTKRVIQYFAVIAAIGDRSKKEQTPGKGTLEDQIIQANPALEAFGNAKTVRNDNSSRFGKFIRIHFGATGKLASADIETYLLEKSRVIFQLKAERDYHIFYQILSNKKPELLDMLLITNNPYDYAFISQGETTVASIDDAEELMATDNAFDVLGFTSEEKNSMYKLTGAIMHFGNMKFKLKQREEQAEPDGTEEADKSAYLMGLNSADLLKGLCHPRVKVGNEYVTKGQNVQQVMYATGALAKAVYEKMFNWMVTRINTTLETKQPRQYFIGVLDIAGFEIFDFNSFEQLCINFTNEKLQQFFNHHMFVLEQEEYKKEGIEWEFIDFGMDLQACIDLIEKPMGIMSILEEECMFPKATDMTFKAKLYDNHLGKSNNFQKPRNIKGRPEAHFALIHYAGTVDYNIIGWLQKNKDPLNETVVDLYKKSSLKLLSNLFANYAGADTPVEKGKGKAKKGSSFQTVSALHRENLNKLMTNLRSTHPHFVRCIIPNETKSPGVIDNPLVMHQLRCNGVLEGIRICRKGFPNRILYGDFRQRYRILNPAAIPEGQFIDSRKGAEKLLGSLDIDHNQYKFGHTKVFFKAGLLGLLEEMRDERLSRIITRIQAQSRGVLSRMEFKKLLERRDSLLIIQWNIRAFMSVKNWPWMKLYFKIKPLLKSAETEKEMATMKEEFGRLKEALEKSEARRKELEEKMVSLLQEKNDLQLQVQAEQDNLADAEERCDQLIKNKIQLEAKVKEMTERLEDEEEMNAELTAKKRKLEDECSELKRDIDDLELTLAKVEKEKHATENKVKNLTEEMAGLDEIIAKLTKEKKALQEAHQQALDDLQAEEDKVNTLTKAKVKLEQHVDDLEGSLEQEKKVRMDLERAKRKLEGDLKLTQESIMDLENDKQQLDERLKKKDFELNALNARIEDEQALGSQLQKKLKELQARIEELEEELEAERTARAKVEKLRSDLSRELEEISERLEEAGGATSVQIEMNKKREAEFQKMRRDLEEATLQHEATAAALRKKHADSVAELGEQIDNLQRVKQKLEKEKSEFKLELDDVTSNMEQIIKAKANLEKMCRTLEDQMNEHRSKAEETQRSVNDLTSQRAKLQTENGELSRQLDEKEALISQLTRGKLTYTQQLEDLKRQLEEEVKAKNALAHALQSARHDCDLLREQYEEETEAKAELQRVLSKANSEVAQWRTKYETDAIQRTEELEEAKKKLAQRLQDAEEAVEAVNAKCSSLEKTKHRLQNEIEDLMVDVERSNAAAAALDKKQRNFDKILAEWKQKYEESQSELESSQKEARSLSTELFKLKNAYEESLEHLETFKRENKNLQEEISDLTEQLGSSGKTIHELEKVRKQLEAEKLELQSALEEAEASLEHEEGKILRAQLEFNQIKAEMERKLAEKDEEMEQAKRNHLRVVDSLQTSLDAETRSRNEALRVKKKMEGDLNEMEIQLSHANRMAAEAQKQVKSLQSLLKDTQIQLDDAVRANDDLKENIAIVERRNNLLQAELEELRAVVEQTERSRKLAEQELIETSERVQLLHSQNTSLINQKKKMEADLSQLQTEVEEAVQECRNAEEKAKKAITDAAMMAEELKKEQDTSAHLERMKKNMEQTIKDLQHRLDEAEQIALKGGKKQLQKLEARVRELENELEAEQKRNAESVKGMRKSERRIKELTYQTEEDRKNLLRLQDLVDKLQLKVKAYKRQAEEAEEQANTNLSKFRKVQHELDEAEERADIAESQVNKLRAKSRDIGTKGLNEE

`Cc1c(C(F)(F)C(=O)N[C@H](C)c2ncc(C#N)cc2F)c(=O)[nH]c2cccc(C#N)c12` (single isomer, unassigned) [compound 2501] and `Cc1c(F)ccc2[nH]c(=O)c(C(F)(F)C(=O)N[C@H](C)c3ncc(C#N)cc3F)c(C)c12` (single isomer, unassigned) [compound 4811] are within 1.5-fold of each other in “Ventricular EC25” value: 0.45 µM for the first, 0.46 µM for the second.

First: C[C@H](NC(=O)Cc1c(C2CC2)c2cc(F)ccc2[nH]c1=O)c1ccc(C#N)nn1 (single isomer, unassigned) [compound 2054]
Second: Cc1c(CC(=O)N[C@@H](C)c2ccc(F)cc2F)c(=O)[nH]c2ccc(F)c(C3CC3)c12 [compound 101]
The “Ventricular EC25” value of the first is 34-fold higher: 3.72 µM for the first, 0.11 µM for the second.

First: C[C@H](NC(=O)C1(c2cc3c(F)c(F)ccc3[nH]c2=O)CC1)c1ccc(F)cc1F [compound 4814]
Second: C[C@H](NC(=O)[C@@H](C)c1cc2c(F)c(F)ccc2[nH]c1=O)c1ccc(F)cc1F (single isomer, unassigned) [compound 110]
The “Ventricular EC25” value of the first is 33-fold lower: 1.31 µM for the first, 42.60 µM for the second.

Compared with `C[C@H](NC(=O)[C@@H](C)c1c(C(F)(F)F)c2cc(F)ccc2[nH]c1=O)c1ccc(F)cc1F` (single isomer, unassigned) [compound 57], `C[C@H](NC(=O)C(F)(F)c1cc2cc(F)ccc2[nH]c1=O)c1ccc(F)cc1F` [compound 119] is 51-fold lower in “Ventricular EC25” value: 100.00 µM for the first, 1.96 µM for the second.

First: Cc1cc([C@@H](C)NC(=O)Cc2c(O)c3c(C)c(F)ccc3[nH]c2=O)ncc1F [compound 1116]
Second: C[C@H](NC(=O)Cc1cc2c(F)c(F)ccc2[nH]c1=O)c1cnc(C#N)cn1 (single isomer, unassigned) [compound 12]
The “Ventricular EC25” value of the first is 910-fold higher: 100.00 µM for the first, 0.11 µM for the second.

`Cc1c(CC(=O)N[C@H]2COCc3cc(C#N)cnc32)c(=O)[nH]c2ccc(F)cc12` [compound 1057] and `C[C@H](NC(=O)Cc1cc2c(C#N)cccc2[nH]c1=O)c1ncc(C#N)cn1` (single isomer, unassigned) [compound 2038] are the same in “Ventricular EC25” value: 100.00 µM for the first, 100.00 µM for the second.

First: Cc1c(C(F)(F)C(=O)N[C@H](C)c2ncc(C#N)cn2)c(=O)[nH]c2ccc(F)c(C(F)(F)F)c12 (single isomer, unassigned) [Compound 2513]
Second: Cc1nc(C#N)cnc1[C@H](C)NC(=O)C1(c2cc3c(F)c(F)ccc3[nH]c2=O)CC1 (single isomer, unassigned) [compound 4826]
The “Ventricular EC25” value of the first is 6.2-fold lower: 1.62 µM for the first, 10.09 µM for the second.
